The structures appear in SMILES notation.

This assay deals with LRRK2 G2019S (Homo sapiens, UniProt Q5S007, G2019S). In words: LRRK2 G2019S Km ATP LanthaScreen assay. The assay is classed as biochemical. As to conditions: read-out: LRRK2 pIC50 (converted). How it is done: Unless otherwise noted, all reactions are magnetically stirred. Unless otherwise noted, when diethyl ether is used in the experiments described below, it is Fisher ACS certified material and is stabilized with BHT. Unless otherwise noted, “concentrated” and/or “solvent removed under reduced pressure” means evaporating the solvent from a solution or mixture using a rotary evaporator or vacuum pump. Unless otherwise noted, flash chromatography is carried out on a Teledyne Isco (Lincoln, NE), Analogix (Burlington, WI), or Biotage (Stockholm, SWE) automated chromatography system using a commercially available cartridge as the column. Columns may be purchased from Teledyne Isco, Analogix, Biotage, Varian (Palo Alto, CA), or Supelco (Bellefonte, PA) and are usually filled with silica gel as the stationary phase. Reverse phase prep-HPLC conditions, where used, can be found at the end of each experimental section. Aqueous solutions were concentrated on a Genevac (Ipswich, ENG) or by freeze-drying/lyophilization.
LRRK2 G2019S, sequence (Q5S007 whole entry G2019S): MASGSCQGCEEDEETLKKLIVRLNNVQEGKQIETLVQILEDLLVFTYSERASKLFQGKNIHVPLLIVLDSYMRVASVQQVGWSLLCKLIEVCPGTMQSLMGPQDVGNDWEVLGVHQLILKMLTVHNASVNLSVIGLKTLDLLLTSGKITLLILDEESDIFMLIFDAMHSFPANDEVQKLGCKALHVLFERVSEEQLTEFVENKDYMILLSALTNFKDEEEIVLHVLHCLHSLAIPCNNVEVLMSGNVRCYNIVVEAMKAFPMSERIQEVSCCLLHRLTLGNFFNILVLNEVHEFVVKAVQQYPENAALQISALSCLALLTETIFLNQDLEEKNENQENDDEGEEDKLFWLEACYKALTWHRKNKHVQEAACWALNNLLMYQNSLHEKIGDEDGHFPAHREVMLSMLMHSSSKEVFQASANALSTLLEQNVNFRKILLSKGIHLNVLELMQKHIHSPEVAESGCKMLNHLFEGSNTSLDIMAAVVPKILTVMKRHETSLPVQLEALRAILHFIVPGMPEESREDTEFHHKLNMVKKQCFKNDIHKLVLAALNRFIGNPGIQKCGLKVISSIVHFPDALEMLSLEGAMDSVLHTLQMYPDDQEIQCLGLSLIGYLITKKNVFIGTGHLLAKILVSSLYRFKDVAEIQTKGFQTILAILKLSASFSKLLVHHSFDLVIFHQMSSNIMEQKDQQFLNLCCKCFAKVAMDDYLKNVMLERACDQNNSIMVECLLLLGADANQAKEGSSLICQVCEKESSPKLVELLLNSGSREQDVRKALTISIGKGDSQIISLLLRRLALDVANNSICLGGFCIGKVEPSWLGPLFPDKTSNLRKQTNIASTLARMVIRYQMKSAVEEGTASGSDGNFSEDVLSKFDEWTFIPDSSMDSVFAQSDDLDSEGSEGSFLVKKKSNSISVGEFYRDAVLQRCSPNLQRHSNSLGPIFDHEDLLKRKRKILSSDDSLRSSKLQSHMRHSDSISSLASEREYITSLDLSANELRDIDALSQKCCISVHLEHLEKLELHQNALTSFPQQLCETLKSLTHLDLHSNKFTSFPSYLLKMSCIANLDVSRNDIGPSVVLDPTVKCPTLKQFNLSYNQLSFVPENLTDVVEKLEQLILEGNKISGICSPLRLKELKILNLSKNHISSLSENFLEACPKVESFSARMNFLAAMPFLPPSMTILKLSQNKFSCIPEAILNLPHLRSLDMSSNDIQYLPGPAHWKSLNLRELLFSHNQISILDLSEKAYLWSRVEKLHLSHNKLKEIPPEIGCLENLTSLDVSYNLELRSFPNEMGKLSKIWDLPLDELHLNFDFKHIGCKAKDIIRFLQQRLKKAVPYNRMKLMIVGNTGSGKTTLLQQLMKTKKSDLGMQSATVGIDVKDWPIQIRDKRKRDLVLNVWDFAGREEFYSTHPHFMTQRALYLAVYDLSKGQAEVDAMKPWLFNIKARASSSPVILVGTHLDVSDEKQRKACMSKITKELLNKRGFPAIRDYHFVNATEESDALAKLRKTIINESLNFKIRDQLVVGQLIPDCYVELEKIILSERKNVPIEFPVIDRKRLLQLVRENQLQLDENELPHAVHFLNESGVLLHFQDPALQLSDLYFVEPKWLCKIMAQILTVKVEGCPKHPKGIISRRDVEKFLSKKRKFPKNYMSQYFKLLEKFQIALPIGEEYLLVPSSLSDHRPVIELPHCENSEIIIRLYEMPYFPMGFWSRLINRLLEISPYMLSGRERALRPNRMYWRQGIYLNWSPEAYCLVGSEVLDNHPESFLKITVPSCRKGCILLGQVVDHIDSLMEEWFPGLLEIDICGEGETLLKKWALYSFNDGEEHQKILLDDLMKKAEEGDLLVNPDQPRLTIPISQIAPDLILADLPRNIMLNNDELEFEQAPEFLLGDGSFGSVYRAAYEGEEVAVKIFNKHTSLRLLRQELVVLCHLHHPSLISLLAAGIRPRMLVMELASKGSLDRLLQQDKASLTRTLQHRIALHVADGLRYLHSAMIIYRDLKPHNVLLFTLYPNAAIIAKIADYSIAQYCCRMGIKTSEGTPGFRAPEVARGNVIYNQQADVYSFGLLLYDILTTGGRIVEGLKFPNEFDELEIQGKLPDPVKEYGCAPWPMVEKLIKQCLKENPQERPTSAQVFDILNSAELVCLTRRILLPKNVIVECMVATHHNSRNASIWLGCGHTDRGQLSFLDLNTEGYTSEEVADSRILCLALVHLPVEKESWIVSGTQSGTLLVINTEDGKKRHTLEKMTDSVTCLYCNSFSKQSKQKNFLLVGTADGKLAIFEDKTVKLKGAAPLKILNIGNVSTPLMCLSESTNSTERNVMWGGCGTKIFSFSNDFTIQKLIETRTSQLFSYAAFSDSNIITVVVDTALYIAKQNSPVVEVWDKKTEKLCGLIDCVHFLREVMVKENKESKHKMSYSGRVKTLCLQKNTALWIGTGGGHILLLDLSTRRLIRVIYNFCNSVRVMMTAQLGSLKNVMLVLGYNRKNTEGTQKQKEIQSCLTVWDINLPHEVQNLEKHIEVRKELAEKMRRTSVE
(TR-FRET usually uses a lanthanide donor and a delayed reading to cut background.)
In the case of `CN1CCO[C@@H](C(=O)Nc2cc3cc(C4(C#N)CC45CC5)ccc3cn2)C1` (single isomer, unassigned) [Ex-1.31, (2R)-N-(6-((R or S)-1-cyanospiro[2.2]pentan-1-yl)isoquinolin-3-yl)-4-methylmorpholine-2-carboxamide], the IC50 was 11.7 nM.
Consider `CCC(=O)N1CCC(C(=O)Nc2cc3cc(C4(C#N)CC45CC5)ccc3cn2)CC1` (single isomer, unassigned) [Ex-1.32, N-(6-((R or S)-1-cyanospiro[2.2]pentan-1-yl)isoquinolin-3-yl)-1-propionylpiperidine-4-carboxamide], for which the IC50 is 2.34 nM.
For the compound `N#CC1(c2ccc3cnc(NC(=O)C4C5Oc6cc(Cl)ncc6C54)cc3c2)CC12CC2` (single isomer, unassigned) [Ex-1.33, (1S,1aR,6bS or 1R,1aS,6bR)-4-chloro-N-(6-((R or S)-1-cyanospiro[2.2]pentan-1-yl)isoquinolin-3-yl)-1a,6b-dihydro-1H-cyclopropa[4,5]furo[3,2-c]pyridine-1-carboxamide], the IC50 is 28.2 nM.
Turning to `CCC1C(C(=O)Nc2cc3cc(C4CCN(C5(C)COCC5F)CC4)c(Cl)cc3cn2)C1c1cnn(C)c1` (single isomer, unassigned) [Ex-1.34, (1R,2R,3R or 1R,2S,3R or 1S,2R,3S, or 1S,2S,3S)-N-(7-chloro-6-(1-((3R,4R or 3S,4S)-4-fluoro-3-methyltetrahydrofuran-3-yl)piperidin-4-yl)isoquinolin-3-yl)-2-ethyl-3-(1-methyl-1H-pyrazol-4-yl)cyclopropane-1-carboxamide], the IC50 was 0.0813 nM.
For the compound `CC1(N2CCC(c3cc4cc(NC(=O)CC5CCOCC5)ncc4cc3Cl)CC2)COCC1O` (single isomer, unassigned) [Ex-1.39, N-(7-chloro-6-(1-((3R,4R or 3S,4S)-4-hydroxy-3-methyltetrahydrofuran-3-yl)piperidin-4-yl)isoquinolin-3-yl)-2-(tetrahydro-2H-pyran-4-yl)acetamide], the IC50 is 0.398 nM.
On to `Cc1nn(C)cc1CC(=O)Nc1cc2cc(C3CCN(C4(C)COCC4O)CC3)c(Cl)cc2cn1` (single isomer, unassigned) [Ex-1.40, N-(7-chloro-6-(1-((3R,4R or 3S,4S)-4-hydroxy-3-methyltetrahydrofuran-3-yl)piperidin-4-yl)isoquinolin-3-yl)-2-(1,3-dimethyl-1H-pyrazol-4-yl)acetamide], for which the IC50 was 0.112 nM.
For `N#CC1(c2ccc3cnc(NC(=O)Cc4cccnc4)cc3c2)CC12CC2` (single isomer, unassigned) [Ex-1.41, (R or S)-N-(6-(1-cyanospiro[2.2]pentan-1-yl)isoquinolin-3-yl)-2-(pyridin-3-yl)acetamide] the value was 0.708 nM; for `N#CC1(c2ccc3cnc(NC(=O)Cc4cnn(C(F)F)c4)cc3c2)CC12CC2` (single isomer, unassigned) [Ex-1.43, (R or S)-N-(6-(1-cyanospiro[2.2]pentan-1-yl)isoquinolin-3-yl)-2-(1-(difluoromethyl)-1H-pyrazol-4-yl)acetamide], 7.08 nM; for `CC(C)(O)c1ccc(CC(=O)Nc2cc3cc(C4(C#N)CC45CC5)ccc3cn2)cc1` (single isomer, unassigned) [Ex-1.44, (R or S)-N-(6-(1-cyanospiro[2.2]pentan-1-yl)isoquinolin-3-yl)-2-(4-(2-hydroxypropan-2-yl)phenyl)acetamide], 22.9 nM.
`CC(C)(O)c1cccc(CC(=O)Nc2cc3cc(C4(C#N)CC45CC5)ccc3cn2)c1` (single isomer, unassigned) [Ex-1.45, (R or S)-N-(6-(1-cyanospiro[2.2]pentan-1-yl)isoquinolin-3-yl)-2-(3-(2-hydroxypropan-2-yl)phenyl)acetamide]: the IC50 was 12.9 nM.
Regarding `CC(C)N1CCOC(CC(=O)Nc2cc3cc(C4(C#N)CC45CC5)ccc3cn2)C1` (single isomer, unassigned) [Ex-1.46, (R or S)-N-(6-(1-cyanospiro[2.2]pentan-1-yl)isoquinolin-3-yl)-2-(4-isopropylmorpholin-2-yl)acetamide], the IC50 is 13.8 nM.
On to `CN1CCOC(CC(=O)Nc2cc3cc(C4(C#N)CC45CC5)ccc3cn2)C1` (single isomer, unassigned) [Ex-1.47, (R or S)-N-(6-(1-cyanospiro[2.2]pentan-1-yl)isoquinolin-3-yl)-2-(4-methylmorpholin-2-yl)acetamide], for which the IC50 is 20 nM.
For `CC1(N2CCC(c3cc4cc(NC(=O)c5cnn(C6CC6)c5)ncc4cc3Cl)CC2)COCC1O` (single isomer, unassigned) [Ex-1.48, N-(7-chloro-6-(1-((3R,4R or 3S,4S)-4-hydroxy-3-methyltetrahydrofuran-3-yl)piperidin-4-yl)isoquinolin-3-yl)-1-cyclopropyl-1H-pyrazole-4-carboxamide] the value was 55 nM; for `C[C@@]1(N2CCC(c3cc4cc(NC(=O)c5ccn(C6CC6)n5)ncc4cc3Cl)CC2)COC[C@@H]1O` (single isomer, unassigned) [Ex-1.49, N-(7-chloro-6-(1-((3R,4R or 3S,4S)-4-hydroxy-3-methyltetrahydrofuran-3-yl)piperidin-4-yl)isoquinolin-3-yl)-1-cyclopropyl-1H-pyrazole-3-carboxamide], 38.9 nM.
For `CC1(N2CCC(c3cc4cc(NC(=O)c5cnn(C6CC6)c5Cl)ncc4cc3Cl)CC2)COCC1O` (single isomer, unassigned) [Ex-1.50, 5-chloro-N-(7-chloro-6-(1-((3R,4R or 3S,4S)-4-hydroxy-3-methyltetrahydrofuran-3-yl)piperidin-4-yl)isoquinolin-3-yl)-1-cyclopropyl-1H-pyrazole-4-carboxamide], the IC50 was 0.0813 nM.
Consider `CC1(N2CCC(c3cc4cc(NC(=O)c5cnn(C6CC6)c5Cl)ncc4cc3Cl)CC2)COCC1F` (single isomer, unassigned) [Ex-1.51, 5-chloro-N-(7-chloro-6-(1-((3R,4R or 3S,4S)-4-fluoro-3-methyltetrahydrofuran-3-yl)piperidin-4-yl)isoquinolin-3-yl)-1-cyclopropyl-1H-pyrazole-4-carboxamide], for which the IC50 was 0.112 nM.
Consider `CC1(N2CCC(c3cc4cc(NC(=O)c5cnn(C67CC(C6)C7)c5)ncc4cc3Cl)CC2)COCC1O` (single isomer, unassigned) [Ex-1.52, 1-(bicyclo[1.1.1]pentan-1-yl)-N-(7-chloro-6-(1-((3R,4R or 3S,4S)-4-hydroxy-3-methyltetrahydrofuran-3-yl)piperidin-4-yl)isoquinolin-3-yl)-1H-pyrazole-4-carboxamide], for which the IC50 is 1.62 nM.
As to `CC1(N2CCC(c3cc4cc(NC(=O)c5cnn(C67CC(C6)C7)c5)ncc4cc3Cl)CC2)COCC1F` (single isomer, unassigned) [Ex-1.53, 1-(bicyclo[1.1.1]pentan-1-yl)-N-(7-chloro-6-(1-((3R,4R or 3S,4S)-4-fluoro-3-methyltetrahydrofuran-3-yl)piperidin-4-yl)isoquinolin-3-yl)-1H-pyrazole-4-carboxamide], the IC50 was 0.676 nM.
Consider `N#CC1(c2ccc3cnc(NC(=O)C4CC45CC5)cc3c2)CC12CC2` (single isomer, unassigned) [Ex-2.1], for which the IC50 is 0.871 nM.
`N#CC1(c2ccc3cnc(NC(=O)C4CC45CC5)cc3c2)CC12CC2` (single isomer, unassigned) [Ex-2.2]: the IC50 was 0.398 nM.
For `O=C(Nc1cc2cc(C3CCN(C4COC4)CC3)c(Cl)cc2cn1)C1CC(OC(F)F)C1` (single isomer, unassigned) [Ex-2.3], the IC50 is 5.62 nM.
In the case of `O=C(Nc1cc2cc(C3CCN(C4COC4)CC3)c(Cl)cc2cn1)C1CC(OC(F)F)C1` (single isomer, unassigned) [Ex-2.4], the IC50 was 14.1 nM.
As to `N#CC1(c2ccc3cnc(NC(=O)C4CC(OC(F)F)C4)cc3c2)CC12CC2` (single isomer, unassigned) [Ex-2.5], the IC50 was 9.77 nM.
For the compound `N#CC1(c2ccc3cnc(NC(=O)C4CC(OC(F)F)C4)cc3c2)CC12CC2` (single isomer, unassigned) [Ex-2.6], the IC50 is 9.12 nM.
In the case of `N#CC1(c2ccc3cnc(NC(=O)C4CC(OC(F)F)C4)cc3c2)CC12CC2` (single isomer, unassigned) [Ex-2.7], the IC50 is 10.5 nM.
Turning to `O=C(Nc1cc2cc(C3CCN(C4COCC4O)CC3)c(Cl)cc2cn1)C1CC12CCOCC2` (single isomer, unassigned) [Ex-4.1, (R or S)-N-(7-chloro-6-(1-((3R,4R or 3R, 4R)-4-hydroxytetrahydrofuran-3-yl)piperidin-4-yl)isoquinolin-3-yl)-6-oxaspiro[2.5]octane-1-carboxamide], the IC50 was 0.631 nM.
In the case of `O=C(Nc1cc2cc(C3CCN(C4COCC4O)CC3)c(Cl)cc2cn1)C1CC12CCOCC2` (single isomer, unassigned) [Ex-4.2, (R or S)-N-(7-chloro-6-(1-((3R,4R or 3R, 4R)-4-hydroxytetrahydrofuran-3-yl)piperidin-4-yl)isoquinolin-3-yl)-6-oxaspiro[2.5]octane-1-carboxamide], the IC50 is 2.82 nM.
`O=C(Nc1cc2cc(C3CCN(C4COCC4O)CC3)c(Cl)cc2cn1)C1CC12CCOCC2` (single isomer, unassigned) [Ex-4.3, N-(7-chloro-6-(1-(4-hydroxytetrahydrofuran-3-yl)piperidin-4-yl)isoquinolin-3-yl)-6-oxaspiro[2.5]octane-1-carboxamide]: the IC50 was 18.2 nM.
`O=C(Nc1cc2cc(C3CCN(C4COCC4O)CC3)c(Cl)cc2cn1)C1CC12CCOCC2` (single isomer, unassigned) [Ex-4.4, N-(7-chloro-6-(1-(4-hydroxytetrahydrofuran-3-yl)piperidin-4-yl)isoquinolin-3-yl)-6-oxaspiro[2.5]octane-1-carboxamide]: the IC50 was 117 nM.

(Values after US20240398784A1, “C-LINKED ISOQUINOLINE AMIDES AS LRRK2 INHIBITORS, PHARMACEUTICAL COMPOSITIONS, AND USES THEREOF” (Merck Sharp & Dohme LLC, priority 2021, published 2024).)
